Literature values as cited in patent publication US20080207601A1, “Methods of and Compositions For the Prevention of Anxiety, Substance Abuse, and Dependence” (Hythiam , Inc., priority 2005, published 2008).

Key:
[1] = tested on: GABAA receptor
[2] = in vivo
[3] = not given; remark: listed apart in the source
[4] = as much as
[5] = tested on: allopregnanolone; conditions: clinical studies
[6] = tested on: GABAA receptors

Which “potency relative to morphine” value (IV/IM route) does the source give for COc1cccc(C2(O)CCCCC2CN(C)C)c1 (centres unmarked) [TRAMADOL] here?
The value was “Tramadol is approximately 10% as potent as morphine, when given”.

Which “effect on potentiation of GABAA receptor function by allopregnanolone and alphaxalone” value [1] does the source give for CC(=O)[C@H]1CC[C@H]2[C@@H]3CC[C@H]4C[C@@H](O)CC[C@]4(C)[C@H]3CC[C@]12C [isopregnanolone] here?
The value was “inhibited”.

Which “time in which the drug is excreted” value [2] does the source give for N[C@@H]1C[C@H]1c1ccccc1 (racemic) [TRANYLCYPROMINE] here?
Its value is 24 h.

With CC(=O)[C@H]1CC[C@H]2[C@@H]3CC[C@@H]4C[C@@H](O)CC[C@]4(C)[C@H]3CC[C@]12C [epipregnanolone] as the molecule, how does the “effect on potentiation of GABAA receptor function by allopregnanolone and alphaxalone” value [1] read?
The value was “inhibited”.

For C[C@]12C=CC(=O)N[C@@H]1CC[C@@H]1[C@@H]2CC[C@]2(C)[C@@H](C(=O)Nc3cc(C(F)(F)F)ccc3C(F)(F)F)CC[C@@H]12 [Dutasteride, (5α,17β)-N-{2,5 bis(trifluoromethyl)phenyl}-3-oxo-4-azaandrost-1-ene-17-carboxamide], which “adverse effects compared with therapeutic dose of 0.5 mg” value ([3]; daily doses of 5 mg, 60 subjects, 6 months) is on record?
Its value is “subjects for 6 months with no additional adverse effects to those”.

And the safety concerns ([3]; single doses up to 40 mg (80 times the therapeutic dose) for 7 days, volunteer studies)?
Its safety concerns is “without significant safety concerns. In a clinical study, daily doses”.

For CCCC(C)(COC(N)=O)COC(N)=O [MEPROBROMATE], which “ingested amount with reported survival” value [4] is on record?
The value was “much as 40 g”.

Which “potency relative to codeine” value (in vivo) does the source give for COc1ccc2c3c1O[C@H]1[C@@H](O)CC[C@H]4[C@@H](C2)N(C)CC[C@@]341 [DIHYDROCODEINE] here?
Its value is “Dihydrocodeine is approximately twice as potent as codeine; this is”.

With CNCCC(Oc1ccc(C(F)(F)F)cc1)c1ccccc1 (centres unmarked) [Fluoxetine] as the molecule, how does the “brain and cerebrospinal fluid content of allopregnanolone” value [5] read?
Its value is “increase”.

With CCOC(=O)c1ncn2c1CN(C)C(=O)c1cc(F)ccc1-2 [flumazenil, ethyl 8-fluoro-5,6-dihydro-5-methyl-6-oxo-4H-imidazo-[1,5-a][1,4]benzodiazepine-3-carboxylate] as the molecule, how does the “modulation of the GABA evoked Cl-current” value ([6]; 3 μM flumazenil, ethanol withdrawn cells) read?
Its value is “potentiates”.

For CN1C(=O)CN=C(c2ccccc2)c2cc(Cl)ccc21 [diazepam], which “effect on the positive modulation of 3 μM flumazenil induced by ethanol withdrawal” value ([6]; 10 μM diazepam substituted for ethanol) is on record?
The value was “negated the positive modulation”.
